# According to patent US20090076130A1, “COMPOUNDS FOR THE INHIBITION OF HISTONE DEACETYLASE” (NATUREWISE BIOTECH & MEDICALS CORPORATION, priority 2007, published 2009):
# What was measured:
# rat C6 glioma cells = assay: Cell cycle / DNA content of C6 glioma cells by FACScan cytometry; assay type: cell-based; details: 0, 2.5, 5, 10 μg/mL, 72 hours, PI staining
# Description: (§1) 1×10^6 of rat C6 glioma cells were treated with various concentrations of NBM-HD-1 (0 μg/mL, 2.5 μg/mL, 5 μg/mL, and 10 μg/mL) for 72 hours. The treated cells were trysinized and collected. The cells were resuspended in 200 μL PBS and then fixed by adding 800 μL of cold 100% ethanol. The resulting cells were fixed overnight at −20°. The cell pellets were collected by centrifugation, resuspended in 1 mL of hypotonic buffer (0.5% Triton X-100 in PBS and 1 μg/mL RNase A), and incubated at 37° for 30 minutes. Then, 1 mL of PI solution (50 μg/mL) was added to the resulting cell pellets. The mixture was allowed to stand at 4° for 30 min. The DNA amounts of the cells were analyzed by FACScan Cytometry (Becton Dickinson) (see FIG. 2).
# cortical neurons = assay: Neurite outgrowth of cortical neurons from fetal rat neural stem cells; assay type: cell-based, Wistar rat; details: 0.63 μg/mL, 6 days, vs DMSO control
# Description: The growth medium for the NSCs (neural stem cells) and cortical neurons was prepared by adding penicillin G, streptomycin and 0.5 mM of L-glutamine into a B-27 supplemented neurobasal medium (Gibco). The unborn fetus was taken out of the fetal sac in the abdominal cavity of a 17-day pregnant Wistar rat under anesthesia. The cerebral tissue was removed from the fetus and treated with 0.1% trypsin solution at 25° C. for three minutes. After washing with PBS solution 3 times, the cells were dissociated by up and down mixing. The resulting solution was passed through a 70 μm Nylon cell strainer (Falcon) in order to obtain the filtrate that contained cerebral cells. The filtrate was centrifuged at 1000 rpm for 10 minutes and the supernatant was aspirated. The resulting pellet was resuspended in the growth medium prepared as stated above. The resulting suspension contained NSCs.
# The cells obtained from the suspension were cultivated in 6-well plates coated with 30 μg/ml of poly-D-lysine (Sigma) at the density of 75 cells/mm^2. The cells were cultured at 37° C., 5% CO2 and 95% relative humidity. The growth media contained 0.63 μg/mL of NBM-HD-1 and the growth media with 1 μl of DMSO was used as the control. […]
# After cultivation for 6 days, live cells were observed by microscope. The lengths of the neurites of the neurons in 6 different fields were measured and averaged. […]
# acetylated histone H4 = assay: Western blotting of hyperacetylated histone H4 in C6 glioma cells; assay type: cell-based, rat
# Description: Accumulation of hyperacetylated histone H4 was analyzed in the cell lysates by using Western Blotting and the antibody directed against acetylated histone H4 (Upstate). The C6 glioma cells were seeded at a density of 1×10^6 per 10 cm culture dish. After 24 hours, the cells were treated with 10 μg/mL of NBM-HD-1 or 4 mM sodium butyrate for several hours. The whole-cell lysates were prepared by using denaturing SDS sample buffer and then separated on 15% SDS-polyacrylamide gels. […] The amount of acetylated histones was hardly detectable in untreated C6 glioma cells. The amount of acetylated histone H4 of the cells treated with 4 mM sodium butyrate for 2 hours increased. Sodium butyrate was then removed from the culture medium. After 6 hours, the amount of acetylated histone H4 decreased. The accumulation of acetylated histone H4 increased in the cells treated with NBM-HD-1 for 2 hours. […] The highest histone acetylation appeared at 6 hours after the compound had been removed. […] Because NBM-HD-1 is more hydrophobic than sodium butyrate, NBM-HD-1 can be retained in the cells longer than sodium butyrate and continuously induce the acetylation of histone H4.
# p21 = assay: RT-PCR of p21 mRNA in MCF-7 cells; assay type: cell-based, human; details: different doses, 24 hours
# Description: The cell cycle related to p21 mRNA expression was examined by RT-PCR. The total RNAs were isolated from the treated MCF-7 cells and used in the RT reaction. cDNA (1 μl) was used as a template to amplify p21 gene by PCR. GAPDH was used as an internal control. […] In this experiment, MCF-7 cells were treated with different doses of NBM-HD-1 for 24 hours.
# HDAC = HDAC Activity Assay Kit on nuclear extracts of treated C6 glioma cells; assay type: cell-based, rat; details: nuclear protein of C6 cells treated 24 hours, fluorometric substrate
# Description: The C6 glioma cells were treated with different doses of NBM-HD-1 and sodium butyrate (SB). After 24 hours, the cells were harvested to extract the nuclear proteins by NucBuster™ Protein Extraction Kit (Novagen) as described by the manufacturer's instructions. These extracts were then used in HDAC Activity Assay Kit (Calbiochem) to analyze their HDAC (histone deacetylase) inhibition activities. The HDAC fluorometric substrate, which comprises an acetylated lysine side chain, was incubated with extracted nuclear protein first. Deacetylation of the substrate sensitized the substrate, so that, in the second step, treatment with the Lysine Developer produced a fluorophore. The fluorophore can easily be analyzed by using a fluorescence plate reader. […] Inhibition of HDAC has been implicated in the induction of differentiation in cancer cells. In this experiment, a well-known compound for HDAC inhibition, sodium butyrate, was used as a positive control.
# MCF-7 cancer cells = assay: Cell cycle / DNA of MCF-7 cells by FACScan cytometry; assay type: cell-based, human; details: 72 hours
# Description: as §1
# MCF-7 cancer cells (1×10^6) in a 100-mm dish were treated with various concentrations of NBM-HD-1 (0, 2.5, 5, and 10 μg/mL) or 4 mM sodium butyrate for 72 hours. The samples were prepared following the steps mentioned in [0063]. The DNA of the cells was then analyzed by FACScan cytometry (Becton Dickinson). […] The percentage of G0/G1 phase increased from 74.46 to 92.55 in a dose-dependent manner.
smiles,measurement,setting,value
COc1cc2c(c(OC)c1CCC(C)(C)O)C(=O)C[C@@H](c1ccc(OC)c(OC)c1C/C=C(\C)CCCC(C)(C)O)O2 [NBM-HD-1],cell cycle of C6 glioma cells,rat C6 glioma cells,cell cycle arrest on the G0/G1 phase in a dose-dependent manner
same,neurite outgrowth (length of the neurites),cortical neurons,could promote the neurite outgrowth
same,accumulation of hyperacetylated histone H4,"acetylated histone H4; 10 μg/mL NBM-HD-1 or 4 mM sodium butyrate, 2 hours",can increase the accumulation of hyperacetylated histone H4
same,time of highest histone acetylation after removal of the compound,"acetylated histone H4; 10 μg/mL, 2 hours treatment",6 h
same,amount of acetylated histone H4 after removal of the compound,"acetylated histone H4; after 2 hours treatment and removal from the culture medium, up to 6 hours",increased over time
same,p21 mRNA expression,p21,induced the expression of p21 in a dose-dependent manner
same,HDAC activity,HDAC,significantly inhibits HDAC activity
same,cell cycle of MCF-7 cells,"MCF-7 cancer cells; 0, 2.5, 5, 10 μg/mL",arrested on the G0/G1 phase in a dose-dependent manner
same,S and G2/M phases of the cells,"MCF-7 cancer cells; MCF-7, 0, 2.5, 5, 10 μg/mL",significantly decreased both S and G2/M phases of the cells in a dose-dependent manner
